Experimental data from patent publication US5200419A, “Substituted tetrazoles and derivatives thereof acting at muscarinic receptors” (Warner-Lambert Company, priority 1990, dated 1993).

Experiments:
[1] = in vivo; cited from earlier work
[2] = system: central muscarinic agonist site; experiment: Receptor [^3 H]Cis-methyldioxalane Assay (RCMD), rat cerebral cortex; assay type: binding
[3] = system: central muscarinic antagonist site; assay type: binding; settings: rat cerebral cortex, [3H]quinuclidinyl benzilate
[4] = aged humans and nonhuman primates with decreased cognition; cited from earlier work

SMILES	age-related cognitive deficits [1]	RCMD (% Inhibition at 0.1 μM) [2] [%]	RQNB (% Inhibition at 1 μM) [3] [%]	memory [4]
Nc1ccncc1N [3,4-diaminopyridine]	ameliorate age-related cognitive deficits	–	–	–
c1nnnn1C1CN2CCC1CC2 (centres unmarked) [Example 1, 3-(1H-Tetrazol-1-yl)-1-azabicyclo[2.2.2]octane]	–	0	7	–
Cc1nnnn1C1CN2CCC1CC2 (centres unmarked) [Example 1a, 3-(5-Methyl-1H-tetrazol-1-yl)-1-azabicyclo[2.2.2]octane]	–	8	19	–
CCc1nnnn1C1CN2CCC1CC2 (centres unmarked) [Example 1b, 3-(5-Ethyl-1H-tetrazol-1-yl)-1-azabicyclo[2.2.2]-octane]	–	15	11	–
CNC(=O)Oc1ccc2c(c1)[C@]1(C)CCN(C)[C@@H]1N2C [physostigmine]	–	–	–	improved memory
